In US20240116985A1, “STAPLED PEPTIDES AND METHODS THEREOF” (priority 2020, published 2024) one finds IC50 data, which are given here for 15 compounds.

In this assay the target is T1, full-length beta-Catenin (Uniprot ID P35222) (Homo sapiens, UniProt P35222).
T1 construct: 10 nM full-length beta-Catenin (Uniprot ID P35222)
T1 sequence (P35222 1-781): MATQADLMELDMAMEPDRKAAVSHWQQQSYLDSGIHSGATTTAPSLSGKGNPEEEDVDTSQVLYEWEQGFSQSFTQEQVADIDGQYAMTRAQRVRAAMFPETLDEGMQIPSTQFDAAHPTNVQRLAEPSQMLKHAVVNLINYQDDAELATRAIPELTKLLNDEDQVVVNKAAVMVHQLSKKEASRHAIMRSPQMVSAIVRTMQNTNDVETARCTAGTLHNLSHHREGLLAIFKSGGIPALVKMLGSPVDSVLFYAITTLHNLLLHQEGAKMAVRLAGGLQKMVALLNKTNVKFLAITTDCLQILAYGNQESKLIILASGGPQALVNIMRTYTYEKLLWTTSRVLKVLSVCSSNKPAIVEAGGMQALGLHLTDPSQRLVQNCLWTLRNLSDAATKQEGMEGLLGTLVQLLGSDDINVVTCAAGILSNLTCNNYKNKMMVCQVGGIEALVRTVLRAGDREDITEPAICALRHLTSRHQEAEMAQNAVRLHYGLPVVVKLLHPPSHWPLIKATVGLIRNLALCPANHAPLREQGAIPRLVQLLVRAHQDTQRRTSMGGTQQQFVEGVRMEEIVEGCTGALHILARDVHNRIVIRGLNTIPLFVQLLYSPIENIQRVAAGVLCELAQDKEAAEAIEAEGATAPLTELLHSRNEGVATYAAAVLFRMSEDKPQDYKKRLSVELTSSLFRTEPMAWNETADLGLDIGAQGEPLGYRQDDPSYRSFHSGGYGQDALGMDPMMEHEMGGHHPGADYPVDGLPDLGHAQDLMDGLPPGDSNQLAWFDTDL
Put plainly: Fluorescence polarization IC50 (beta-catenin / 5FAM-TCF4 10-53 competition). Format: binding. The following applies: fluorescence polarization; read-out: beta-Catenin FP IC50. (Polarisation of emitted light reports the rotation of a fluorescent probe.)

`CC(=O)N1CCC[C@]12CC=CCCCC1(CCCC=CCCCOC(=O)N3CC[C@@](C(=O)N[C@@H](Cc4ccsc4)C(=O)N[C@@H](Cc4csc5ccccc45)C(=O)N[C@@H](CCC(N)=O)C(N)=O)(C3)NC(=O)[C@H](CC(C)C)NC(=O)[C@H](Cc3ccccc3)NC(=O)[C@H](C)NC(=O)[C@H](C)NC(=O)[C@H](Cc3c(F)c(F)c(F)c(F)c3F)NC(=O)[C@H](CC(=O)O)NC1=O)NC(=O)[C@H](CC(C)(C)C)NC(=O)[C@H](CC(=O)O)NC2=O` (stereo partly drawn) [I-1792, Ac-PL3-Asp-Npg-B5-Asp-Pff-Ala-Ala-Phe-Leu-PyrS2-3Thi-BztA-Gln-NH2]: the IC50 – broadly, the concentration needed to halve the response being measured – was 935 nM.
In the case of `CC(=O)N1CCC[C@]12CC=CCCCC1(CCCC=CCCCOC(=O)N3CC[C@@](C(=O)N[C@@H](Cc4ccsc4)C(=O)N[C@@H](Cc4csc5ccccc45)C(=O)N[C@@H](CCC(N)=O)C(N)=O)(C3)NC(=O)[C@H](CC(C)C)NC(=O)[C@H](Cc3ccccc3)NC(=O)[C@H](C)NC(=O)[C@H](C)NC(=O)[C@H](Cc3c[nH]cn3)NC(=O)[C@H](CC(=O)O)NC1=O)NC(=O)[C@H](CC(C)(C)C)NC(=O)[C@H](CC(=O)O)NC2=O` (stereo partly drawn) [I-1795, Ac-PL3-Asp-Npg-B5-Asp-His-Ala-Ala-Phe-Leu-PyrS2-3Thi-BztA-Gln-NH2] it was 28 nM; in that of `CC(=O)N1CCC[C@]12CC=CCCCC1(CCCC=CCCCOC(=O)N3CC[C@@](C(=O)N[C@@H](Cc4ccsc4)C(=O)N[C@@H](Cc4csc5ccccc45)C(=O)N[C@@H](CCC(=O)N4CCC(N5CCCCC5)CC4)C(N)=O)(C3)NC(=O)[C@H](CC(C)C)NC(=O)[C@H](Cc3ccccc3)NC(=O)[C@H](C)NC(=O)[C@H](C)NC(=O)[C@H](CN(CC(=O)O)CC(F)(F)F)NC(=O)[C@H](CC(=O)O)NC1=O)NC(=O)[C@H](CC(C)(C)C)NC(=O)[C@H](CC(=O)O)NC2=O` (stereo partly drawn) [I-1798, Ac-PL3-Asp-Npg-B5-Asp-TfeGA-Ala-Ala-Phe-Leu-PyrS2-3Thi-BztA-[4Pippip]GlnR-NH2], 12 nM; in that of `CC(=O)N1CCC[C@]12CCCCCC[C@@](C)(C(=O)N[C@@H](CC(=O)O)C(=O)N[C@@H](CC(=O)O)C(=O)N[C@@H](C)C(=O)N[C@@H](C)C(=O)N[C@@H](Cc1ccccc1)C(=O)N[C@@H](CC(C)C)C(=O)NC(C)(C)C(=O)N[C@@H](Cc1ccsc1)C(=O)N[C@@H](Cc1csc3ccccc13)C(=O)N[C@@H](CCC(N)=O)C(N)=O)NC(=O)[C@H](CC(C)(C)C)NC(=O)[C@H](CC(=O)O)NC2=O` [I-1809, Ac-PL3-Asp-Npg-S5-Asp-Asp-Ala-Ala-Phe-Leu-Aib-3Thi-BztA-Gln-NH2], 1950 nM.
Take `CC(=O)N1CCC[C@H]1C(=O)N[C@@H](CC(=O)O)C(=O)N[C@@H](CC(C)(C)C)C(=O)N[C@]1(C)CCCCCCCCOC(=O)N2CC[C@@](C(=O)N[C@@H](Cc3ccsc3)C(=O)N[C@@H](Cc3csc4ccccc34)C(=O)N[C@@H](CCC(N)=O)C(N)=O)(C2)NC(=O)[C@H](CC(C)C)NC(=O)[C@H](Cc2ccccc2)NC(=O)[C@H](C)NC(=O)[C@H](C)NC(=O)[C@H](CC(=O)O)NC(=O)[C@H](CC(=O)O)NC1=O` [I-1810, Ac-Pro-Asp-Npg-R5-Asp-Asp-Ala-Ala-Phe-Leu-PyrS2-3Thi-BztA-Gln-NH2]: the IC50 was 416 nM.
The value for `CC(=O)N1CCC[C@]12CC=CCCCC1(CCCC=CCCCOC(=O)N3CC[C@@](C(=O)N[C@@H](Cc4ccccc4)C(=O)N[C@@H](Cc4c[nH]c5ccccc45)C(=O)N[C@@H](CCC(N)=O)C(N)=O)(C3)NC(=O)[C@H](CC(C)C)NC(=O)[C@H](Cc3ccccc3)NC(=O)[C@H](C)NC(=O)[C@H](C)NC(=O)[C@H](CC(=O)O)NC(=O)[C@H](CC(=O)O)NC1=O)NC(=O)[C@H](CC(C)C)NC(=O)[C@H](CC(=O)O)NC2=O` (stereo partly drawn) [I-1811, Ac-PL3-Asp-Leu-B5-Asp-Asp-Ala-Ala-Phe-Leu-PyrS2-Phe-Trp-Gln-NH2] was 156 nM.
On to `CC(=O)N1CCC[C@]12CC=CCCCC1(CCCC=CCCOC(=O)N3CC[C@@](C(=O)N[C@@H](Cc4ccsc4)C(=O)N[C@@H](Cc4csc5ccccc45)C(=O)N[C@@H](CCC(N)=O)C(N)=O)(C3)NC(=O)[C@H](CC(N)=O)NC(=O)[C@H](Cc3ccccc3)NC(=O)[C@H](C)NC(=O)[C@H](C)NC(=O)[C@H](CC(=O)O)NC(=O)[C@H](CC(=O)O)NC1=O)NC(=O)[C@H](CC(C)(C)C)NC(=O)[C@H](CC(=O)O)NC2=O` (stereo partly drawn) [I-1812, Ac-PL3-Asp-Npg-B5-Asp-Asp-Ala-Ala-Phe-Asn-PyrS1-3Thi-BztA-Gln-NH2], for which the concentration for half-maximal inhibition (IC50) was found to be 181 nM.
In the case of `CC(=O)N1CCC[C@]12CC=CCCCC1(CCCC=CCCOC(=O)N3CC[C@@](C(=O)N[C@@H](Cc4ccsc4)C(=O)N[C@@H](Cc4csc5ccccc45)C(=O)N[C@@H](CCC(N)=O)C(N)=O)(C3)NC(=O)[C@H](CC(C)C)NC(=O)[C@H](Cc3ccccc3)NC(=O)[C@H](C)NC(=O)[C@H](C)NC(=O)[C@H](CC(=O)O)NC(=O)[C@H](CC(=O)O)NC1=O)NC(=O)[C@H](CC(C)(C)C)NC(=O)[C@H](CC(=O)O)NC2=O` (stereo partly drawn) [I-1814, Ac-PL3-Asp-Npg-B5-Asp-Asp-Ala-Ala-Phe-Leu-PyrS1-3Thi-BztA-Gln-NH2] it was 189 nM; in that of `CC(=O)N1CCC[C@]12CC=CCCCC1(CCCC=CCOC(=O)N3CC[C@@](C(=O)N[C@@H](Cc4ccsc4)C(=O)N[C@@H](Cc4csc5ccccc45)C(=O)N[C@@H](CCC(N)=O)C(N)=O)(C3)NC(=O)[C@H](CC(N)=O)NC(=O)[C@H](Cc3ccccc3)NC(=O)[C@H](C)NC(=O)[C@H](C)NC(=O)[C@H](CC(=O)O)NC(=O)[C@H](CC(=O)O)NC1=O)NC(=O)[C@H](CC(C)(C)C)NC(=O)[C@H](CC(=O)O)NC2=O` (stereo partly drawn) [I-1816, Ac-PL3-Asp-Npg-B5-Asp-Asp-Ala-Ala-Phe-Asn-PyrS-3Thi-BztA-Gln-NH2], 235 nM.
Regarding `CC(=O)N1CCC[C@]12CC=CCCCC1(CCCC=CCOC(=O)N3CC[C@@](C(=O)N[C@@H](Cc4ccsc4)C(=O)N[C@@H](Cc4csc5ccccc45)C(=O)N[C@@H](CCC(N)=O)C(N)=O)(C3)NC(=O)[C@H](CC(N)=O)NC(=O)[C@H](Cc3ccccc3)NC(=O)[C@H](C)NC(=O)[C@H](C)NC(=O)[C@H](CC(=O)O)NC(=O)[C@H](CC(=O)O)NC1=O)NC(=O)[C@H](CC(C)(C)C)NC(=O)[C@H](CC(=O)O)NC2=O` (stereo partly drawn) [I-1817, Ac-PL3-Asp-Npg-B5-Asp-Asp-Ala-Ala-Phe-Asn-PyrS-3Thi-BztA-Gln-NH2], the concentration for half-maximal inhibition (IC50) is 182 nM.
In the case of `CC(=O)N1CCC[C@]12CC=CCCCC1(CCCC=CCCCCC[C@@](C)(C(=O)N[C@@H](Cc3ccsc3)C(=O)N[C@@H](Cc3csc4ccccc34)C(=O)N[C@@H](CCC(N)=O)C(N)=O)NC(=O)[C@H](CC(N)=O)NC(=O)[C@H](Cc3ccccc3)NC(=O)[C@H](C)NC(=O)[C@H](C)NC(=O)[C@H](CC(=O)O)NC(=O)[C@H](CC(=O)O)NC1=O)NC(=O)[C@H](CC(C)(C)C)NC(=O)[C@H](CC(=O)O)NC2=O` (stereo partly drawn) [I-1819, Ac-PL3-Asp-Npg-B5-Asp-Asp-Ala-Ala-Phe-Asn-S7-3Thi-BztA-Gln-NH2] it was 615 nM.
In the case of `CC(=O)N1CCC[C@]12CC=CCCCC1(CCCC=CCCCCC[C@@](C)(C(=O)N[C@@H](Cc3ccsc3)C(=O)N[C@@H](Cc3csc4ccccc34)C(=O)N[C@@H](CCC(N)=O)C(N)=O)NC(=O)[C@H](CC(C)C)NC(=O)[C@H](Cc3ccccc3)NC(=O)[C@H](C)NC(=O)[C@H](C)NC(=O)[C@H](CC(=O)O)NC(=O)[C@H](CC(=O)O)NC1=O)NC(=O)[C@H](CC(C)(C)C)NC(=O)[C@H](CC(=O)O)NC2=O` (stereo partly drawn) [I-1820, Ac-PL3-Asp-Npg-B5-Asp-Asp-Ala-Ala-Phe-Leu-S7-3Thi-BztA-Gln-NH2] it was 422 nM; in that of `CC(=O)N1CCC[C@]12CCCCCCC1(CCCCCCCCCC[C@@](C)(C(=O)N[C@@H](Cc3ccsc3)C(=O)N[C@@H](Cc3csc4ccccc34)C(=O)N[C@@H](CCC(N)=O)C(N)=O)NC(=O)[C@H](CC(N)=O)NC(=O)[C@H](Cc3ccccc3)NC(=O)[C@H](C)NC(=O)[C@H](C)NC(=O)[C@H](CC(=O)O)NC(=O)[C@H](CC(=O)O)NC1=O)NC(=O)[C@H](CC(C)(C)C)NC(=O)[C@H](CC(=O)O)NC2=O` (stereo partly drawn) [I-1825, Ac-PL3-Asp-Npg-B5-Asp-Asp-Ala-Ala-Phe-Asn-S7-3Thi-BztA-Gln-NH2], 366 nM; in that of `CC(=O)N1CCC[C@]12CC=CCCCC1(CCCC=CCOC(=O)N3CC(C(=O)N[C@@H](Cc4ccsc4)C(=O)N[C@@H](Cc4csc5ccccc45)C(=O)N[C@@H](CCC(N)=O)C(N)=O)(C3)NC(=O)[C@H](CC(N)=O)NC(=O)[C@H](Cc3ccccc3)NC(=O)[C@H](C)NC(=O)[C@H](C)NC(=O)[C@H](CC(=O)O)NC(=O)[C@H](CC(=O)O)NC1=O)NC(=O)[C@H](CC(C)(C)C)NC(=O)[C@H](CC(=O)O)NC2=O` (stereo partly drawn) [I-1826, Ac-PL3-Asp-Npg-B5-Asp-Asp-Ala-Ala-Phe-Asn-Az-3Thi-BztA-Gln-NH2], 474 nM.
In the case of `CC(=O)N1CCC[C@]12CC=CCCCC1(CCCC=CCOC(=O)N3CC(C(=O)N[C@@H](Cc4ccsc4)C(=O)N[C@@H](Cc4csc5ccccc45)C(=O)N[C@@H](CCC(N)=O)C(N)=O)(C3)NC(=O)[C@H](CC(N)=O)NC(=O)[C@H](Cc3ccccc3)NC(=O)[C@H](C)NC(=O)[C@H](C)NC(=O)[C@H](CC(=O)O)NC(=O)[C@H](CC(=O)O)NC1=O)NC(=O)[C@H](CC(C)(C)C)NC(=O)[C@H](CC(=O)O)NC2=O` (stereo partly drawn) [I-1827, Ac-PL3-Asp-Npg-B5-Asp-Asp-Ala-Ala-Phe-Asn-Az-3Thi-BztA-Gln-NH2] it was 308 nM.
